Experimental data published in patent publication US20250250230A1, “HETEROCYCLIC COMPOUND” (TAKEDA PHARMACEUTICAL COMPANY LIMITED, priority 2022, published 2025).

What follows are compounds tested against T1, human orexin type 2 receptor (Homo sapiens, UniProt O43614) (assay: Measurement of orexin type 2 receptor agonist activity (calcium fluorescence, Fluo-4 AM, FDSS)). Conditions: test compound 3 μM; CHO cells expressing human OX2 receptor; DMSO = 0%, orexin A (human) = 100%.
T1 construct: expressed in transfected cells
T1 sequence (O43614 1-444): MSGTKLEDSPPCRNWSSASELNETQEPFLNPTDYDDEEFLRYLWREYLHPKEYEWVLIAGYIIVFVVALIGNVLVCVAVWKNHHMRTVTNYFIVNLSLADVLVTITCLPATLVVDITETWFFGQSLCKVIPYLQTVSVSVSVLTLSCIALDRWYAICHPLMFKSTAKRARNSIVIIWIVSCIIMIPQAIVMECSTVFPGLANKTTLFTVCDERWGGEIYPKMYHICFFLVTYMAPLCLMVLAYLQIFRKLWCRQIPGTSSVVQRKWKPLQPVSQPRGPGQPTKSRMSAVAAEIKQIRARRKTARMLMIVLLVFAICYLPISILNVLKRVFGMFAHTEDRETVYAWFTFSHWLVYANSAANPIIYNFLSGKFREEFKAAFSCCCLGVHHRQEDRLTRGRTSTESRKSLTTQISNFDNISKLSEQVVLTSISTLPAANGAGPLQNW
Format: cell-based
How it was run: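 CHO-K1 cells stably expressing human OX2R were loaded with Fluo-4 AM (30 min 37 °C, 30 min RT) in HEPES-buffered HBSS with 0.1% BSA and probenecid. Calcium fluorescence was followed on FDSS for 2 min after compound addition; activity normalised to DMSO (0%) and 10 nM orexin A (100%).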

Structure (SMILES) | OX2R agonist activity (3 μM, %)
CNS(=O)(=O)NC[C@@H]1CN(C(=O)[C@@H]2C[C@H]2c2ccccc2-c2c(F)cccc2F)CCO1 [Example 337, N-({(2S)-4-[(1R,2R)-2-(2′,6′-difluoro[1,1′-biphenyl]-2-yl)cyclopropane-1-carbonyl]morpholin-2-yl}methyl)-N′-methylsulfuric diamide] | 100%
O=C([C@@H]1C[C@H]1c1ccccc1-c1c(F)cccc1F)N1CCO[C@H](CNS(=O)(=O)N2CCC2)C1 [Example 338, N-({(2S)-4-[(1R,2R)-2-(2′,6′-difluoro[1,1′-biphenyl]-2-yl)cyclopropane-1-carbonyl]morpholin-2-yl}methyl)azetidine-1-sulfonamide] | 98%
CNS(=O)(=O)NC[C@@H]1CCN1C(=O)[C@@H]1C[C@H]1c1ccccc1-c1c(F)cccc1F [Example 339, N-({(2S)-1-[(1R,2R)-2-(2′,6′-difluoro[1,1′-biphenyl]-2-yl)cyclopropane-1-carbonyl]azetidin-2-yl}methyl)-N′-methylsulfuric diamide] | 103%
CS(=O)(=O)NC1CCC2CN(C(=O)[C@@H]3C[C@H]3c3ccccc3-c3c(F)cccc3F)CC21F (stereo partly drawn) [Example 340, N-{(3aR,4R,6aS)-2-[(1R,2R)-2-(2′,6′-difluoro[1,1′-biphenyl]-2-yl)cyclopropane-1-carbonyl]-3a-fluorooctahydrocyclopenta[c]pyrrol-4-yl}methanesulfonamide, or N-{(3aS,4S,6aR)-2-[(1R,2R)-2-(2′,6′-difluoro[1,1′-biphenyl]-2-yl)cyclopropane-1-carbonyl]-3a-fluorooctahydrocyclopenta[c]pyrrol-4-yl}methanesulfonamide] | 94%
CS(=O)(=O)N[C@H]1C[C@@H](O)CN(C(=O)[C@@H]2C[C@@]2(F)c2ccccc2-c2c(F)cccc2F)C1 [Example 341, N-{(3S,5R)-1-[(1S,2S)-2-(2′,6′-difluoro[1,1′-biphenyl]-2-yl)-2-fluorocyclopropane-1-carbonyl]-5-hydroxypiperidin-3-yl}methanesulfonamide] | 101%
CS(=O)(=O)NC1(CF)CCN(C(=O)[C@@H]2C[C@H]2c2ccccc2-c2c(F)cccc2F)C1 (stereo partly drawn) [Example 342, N-[(3R)-1-[(1R,2R)-2-(2′,6′-difluoro[1,1′-biphenyl]-2-yl)cyclopropane-1-carbonyl]-3-(fluoromethyl)pyrrolidin-3-yl]methanesulfonamide, or N-[(3S)-1-[(1R,2R)-2-(2′,6′-difluoro[1,1′-biphenyl]-2-yl)cyclopropane-1-carbonyl]-3-(fluoromethyl)pyrrolidin-3-yl]methanesulfonamide] | 101%
CC1(NS(C)(=O)=O)CCN(C(=O)[C@@H]2C[C@@]2(F)c2ccccc2-c2c(F)cccc2F)C1 (stereo partly drawn) [Example 344, N-{(3R)-1-[(1S,2S)-2-(2′,6′-difluoro[1,1′-biphenyl]-2-yl)-2-fluorocyclopropane-1-carbonyl]-3-methylpyrrolidin-3-yl}methanesulfonamide, or N-{(3S)-1-[(1S,2S)-2-(2′,6′-difluoro[1,1′-biphenyl]-2-yl)-2-fluorocyclopropane-1-carbonyl]-3-methylpyrrolidin-3-yl}methanesulfonamide] | 95%
COCC1(C(=O)N2CC[C@H](NS(C)(=O)=O)C2)CC1c1ccccc1-c1c(F)cccc1F (stereo partly drawn) [Example 346, N-{(3S)-1-[(1R,2S)-2-(2′,6′-difluoro[1,1′-biphenyl]-2-yl)-1-(methoxymethyl)cyclopropane-1-carbonyl]pyrrolidin-3-yl}methanesulfonamide, or N-{(3S)-1-[(1S,2R)-2-(2′,6′-difluoro[1,1′-biphenyl]-2-yl)-1-(methoxymethyl)cyclopropane-1-carbonyl]pyrrolidin-3-yl}methanesulfonamide] | 100%
COCC1(C(=O)N2CC[C@H]2CNS(C)(=O)=O)CC1c1ccccc1-c1c(F)cccc1F (stereo partly drawn) [Example 347, N-({(2S)-1-[(1R,2S)-2-(2′,6′-difluoro[1,1′-biphenyl]-2-yl)-1-(methoxymethyl)cyclopropane-1-carbonyl]azetidin-2-yl}methyl)methanesulfonamide, or N-({(2S)-1-[(1S,2R)-2-(2′,6′-difluoro[1,1′-biphenyl]-2-yl)-1-(methoxymethyl)cyclopropane-1-carbonyl]azetidin-2-yl}methyl)methanesulfonamide] | 95%
CS(=O)(=O)N[C@@H]1CN(C(=O)[C@@H]2C[C@@]2(F)c2ccccc2-c2c(F)cccc2F)CC[C@H]1O [Example 348, N-{(3R,4R)-1-[(1S,2S)-2-(2′,6′-difluoro[1,1′-biphenyl]-2-yl)-2-fluorocyclopropane-1-carbonyl]-4-hydroxypiperidin-3-yl}methanesulfonamide] | 97%
CO[C@H]1C[C@H](NS(C)(=O)=O)CN(C(=O)[C@@H]2C[C@H]2c2ccccc2-c2c(F)cccc2F)C1 [Example 349, N-{(3S,5S)-1-[(1R,2R)-2-(2′,6′-difluoro[1,1′-biphenyl]-2-yl)cyclopropane-1-carbonyl]-5-methoxypiperidin-3-yl}methanesulfonamide] | 97%
CO[C@@H]1CCN(C(=O)[C@@H]2C[C@H]2c2ccccc2-c2c(F)cccc2F)C[C@H]1NS(C)(=O)=O [Example 350, N-{(3R,4R)-1-[(1R,2R)-2-(2′,6′-difluoro[1,1′-biphenyl]-2-yl)cyclopropane-1-carbonyl]-4-methoxypiperidin-3-yl}methanesulfonamide] | 102%
CS(=O)(=O)NC[C@@H]1CCN1C(=O)[C@@H]1C[C@@]1(F)c1ccccc1-c1c(F)cccc1F [Example 352, N-({(2S)-1-[(1S,2S)-2-(2′,6′-difluoro[1,1′-biphenyl]-2-yl)-2-fluorocyclopropane-1-carbonyl]azetidin-2-yl}methyl)methanesulfonamide] | 96%
CS(=O)(=O)NC[C@@H]1CCN1C(=O)[C@@H]1C[C@H]1c1ccccc1-c1c(F)cccc1F [Example 355, N-({(2S)-1-[(1R,2R)-2-(2′,6′-difluoro[1,1′-biphenyl]-2-yl)cyclopropane-1-carbonyl]azetidin-2-yl}methyl)methanesufonamide] | 94%
CC1(C(=O)N2CC[C@H]2CNS(C)(=O)=O)CC1(F)c1ccccc1-c1c(F)cccc1F (stereo partly drawn) [Example 356, N-({(2S)-1-[(1R,2S)-2-(2′,6′-difluoro[1,1′-biphenyl]-2-yl)-2-fluoro-1-methylcyclopropane-1-carbonyl]azetidin-2-yl}methyl)methanesulfonamide, or N-({(2S)-1-[(1S,2R)-2-(2′,6′-difluoro[1,1′-biphenyl]-2-yl)-2-fluoro-1-methylcyclopropane-1-carbonyl]azetidin-2-yl}methyl)methanesulfonamide] | 84%
C[C@@H]1CN(C(=O)[C@@H]2C[C@@]2(F)c2ccccc2-c2c(F)cccc2F)[C@H]1CNS(C)(=O)=O [Example 357, N-({(2R,3R)-1-[(1S,2S)-2-(2′,6′-difluoro[1,1′-biphenyl]-2-yl)-2-fluorocyclopropane-1-carbonyl]-3-methylazetidin-2-yl}methyl)methanesulfonamide] | 96%
CS(=O)(=O)NCC12CC(C1)N(C(=O)[C@@H]1C[C@@]1(F)c1ccccc1-c1c(F)cccc1F)C2 [Example 359, N-({2-[(1S,2S)-2-(2′,6′-difluoro[1,1′-biphenyl]-2-yl)-2-fluorocyclopropane-1-carbonyl]-2-azabicyclo[2.1.1]hexan-4-yl}methyl)methanesulfonamide] | 94%
CCS(=O)(=O)NC[C@@H]1[C@H](C)CN1C(=O)[C@@H]1C[C@@]1(F)c1ccccc1-c1c(F)cccc1F [Example 360, N-({(2S,3R)-1-[(1S,2S)-2-(2′,6′-difluoro[1,1′-biphenyl]-2-yl)-2-fluorocyclopropane-1-carbonyl]-3-methylazetidin-2-yl}methyl)ethanesulfonamide] | 103%
CCS(=O)(=O)NC(C)[C@H]1CCN1C(=O)[C@@H]1C[C@H]1c1ccccc1-c1c(F)cccc1F (stereo partly drawn) [Example 361, N-[(1R)-1-{(2R)-1-[(1R,2R)-2-(2′,6′-difluoro[1,1′-biphenyl]-2-yl)cyclopropane-1-carbonyl]azetidin-2-yl}ethyl]ethanesulfonamide, or N-[(1S)-1-{(2R)-1-[(1R,2R)-2-(2′,6′-difluoro[1,1′-biphenyl]-2-yl)cyclopropane-1-carbonyl]azetidin-2-yl}ethyl]ethanesulfonamide] | 90%
CCS(=O)(=O)NC[C@@H]1CCN1C(=O)[C@@H]1C[C@H]1c1ccccc1-c1c(F)cccc1F [Example 362, N-({(2S)-1-[(1R,2R)-2-(2′,6′-difluoro[1,1′-biphenyl]-2-yl)cyclopropane-1-carbonyl]azetidin-2-yl}methyl)ethanesulfonamide] | 89%
